Source: PMC7979765, “trans-Translation inhibitors bind to a novel site on the ribosome and clear Neisseria gonorrhoeae in vivo” (Nature Communications, 2021)
Converted amounts (≈) assume the structure as drawn. Read-outs that look alike come from different tables or passages of the source.

Tested on: Neisseria gonorrhoeae
Test: MIC, microbroth dilution, G77L medium
Type: cell-based
Details: Neisseria gonorrhoeae

`O=C(Nc1nnc(-c2ccc(F)cc2)o1)N1CCc2ccccc2C1` [MBX-4132] was tested, and the MIC (read-out: MIC GEOMEAN, strain WHO N, geomean of replicates) was 0.264 µg/mL (≈ 0.78 µM), the MIC (read-out: MIC GEOMEAN, strain WHO O, geomean of replicates) was 0.132 µg/mL (≈ 0.39 µM) and the MIC (read-out: MIC GEOMEAN, strain WHO P, geomean of replicates) was 0.333 µg/mL (≈ 0.984 µM). It also gave an MIC (read-out: MIC GEOMEAN, strain WHO U, geomean of replicates) of 0.132 µg/mL (≈ 0.39 µM), an MIC (read-out: MIC GEOMEAN, strain WHO V, geomean of replicates) of 0.264 µg/mL (≈ 0.78 µM) and an MIC (read-out: MIC GEOMEAN, strain WHO W, geomean of replicates) of 0.132 µg/mL (≈ 0.39 µM). The MIC (read-out: MIC GEOMEAN, strain WHO X, geomean of replicates) was 0.21 µg/mL (≈ 0.621 µM), the MIC (read-out: MIC GEOMEAN, strain WHO Y, geomean of replicates) was 0.21 µg/mL (≈ 0.621 µM) and the MIC (read-out: MIC GEOMEAN, strain WHO Z, geomean of replicates) was 0.264 µg/mL (≈ 0.78 µM). It also gave an MIC (read-out: N. gonorrhoeae H041 MIC, strain H041, Fig. 1B) of 0.18 µg/mL (≈ 0.532 µM), an MIC90 (read-out: N. gonorrhoeae MIC90) of 0.34 µg/mL (≈ 1 µM) and an MIC (strain CDC-0165, CIP, PEN, TET) of 0.68 µg/mL (≈ 2.01 µM). The MIC (strain CDC-0165, replicates 1-3) was 0.677 µg/mL (≈ 2 µM), the MIC (strain CDC-0166, CIP, PEN, TET) was 0.17 µg/mL (≈ 0.502 µM) and the MIC (strain CDC-0166, replicates 1-3) was 0.169 µg/mL (≈ 0.499 µM). The MIC (strain CDC-0167) was 0.13 µg/mL (≈ 0.384 µM), the MIC (strain CDC-0167, replicates 1-3) was 0.169 µg/mL (≈ 0.499 µM) and the MIC (strain CDC-0169, CIP, PEN, TET) was 0.17 µg/mL (≈ 0.502 µM). It also gave an MIC (strain CDC-0169, replicates 1-3) of 0.169 µg/mL (≈ 0.499 µM), an MIC (strain CDC-0170, CIP, PEN, TET) of 0.17 µg/mL (≈ 0.502 µM) and an MIC (strain CDC-0170, replicates 1-3) of 0.169 µg/mL (≈ 0.499 µM). For the same molecule, the MIC (strain CDC-0171, CIP, PEN, TET) was 0.17 µg/mL (≈ 0.502 µM), the MIC (strain CDC-0171, replicates 1-3) was 0.169 µg/mL (≈ 0.499 µM) and the MIC (strain CDC-0172, CIP, PEN, TET) was 0.17 µg/mL (≈ 0.502 µM). The MIC (strain CDC-0172, replicates 1-3) was 0.169 µg/mL (≈ 0.499 µM), the MIC (strain CDC-0173, CIP, PEN, TET) was 0.17 µg/mL (≈ 0.502 µM) and the MIC (strain CDC-0173, replicates 1-3) was 0.169 µg/mL (≈ 0.499 µM). The MIC (strain CDC-0174, CIP, PEN, TET) was 0.17 µg/mL (≈ 0.502 µM), the MIC (strain CDC-0174, replicates 1-3) was 0.169 µg/mL (≈ 0.499 µM) and the MIC (strain CDC-0175, CIP, PEN, TET) was 0.08 µg/mL (≈ 0.236 µM). For the same molecule, the MIC (strain CDC-0175, replicates 1-3) was 0.085 µg/mL (≈ 0.251 µM), the MIC (strain CDC-0176) was 0.34 µg/mL (≈ 1 µM) and the MIC (strain CDC-0176, replicates 1-3) was 0.338 µg/mL (≈ 0.999 µM). For the same molecule, the MIC (strain CDC-0177, CIP, PEN, TET) was 0.17 µg/mL (≈ 0.502 µM), the MIC (strain CDC-0177, replicates 1-3) was 0.169 µg/mL (≈ 0.499 µM) and the MIC (strain CDC-0178, TET) was 0.34 µg/mL (≈ 1 µM). The MIC (strain CDC-0178, replicates 1-3) was 0.338 µg/mL (≈ 0.999 µM), the MIC (strain CDC-0179, CIP, PEN, TET) was 0.08 µg/mL (≈ 0.236 µM) and the MIC (strain CDC-0179, replicates 1-3) was 0.085 µg/mL (≈ 0.251 µM). It also gave an MIC (strain CDC-0180) of 0.17 µg/mL (≈ 0.502 µM), an MIC (strain CDC-0180, replicates 1-3) of 0.169 µg/mL (≈ 0.499 µM) and an MIC (strain CDC-0181, CIP, PEN, TET) of 0.17 µg/mL (≈ 0.502 µM). For the same molecule, the MIC (strain CDC-0181, replicates 1-3) was 0.169 µg/mL (≈ 0.499 µM), the MIC (strain CDC-0182, TET) was 0.17 µg/mL (≈ 0.502 µM) and the MIC (strain CDC-0182, replicates 1-3) was 0.169 µg/mL (≈ 0.499 µM). The MIC (strain CDC-0183, CIP, PEN, TET) was 0.34 µg/mL (≈ 1 µM), the MIC (strain CDC-0183, replicates 1-3) was 0.338 µg/mL (≈ 0.999 µM) and the MIC (strain CDC-0184, CIP, PEN, TET) was 0.17 µg/mL (≈ 0.502 µM). It also gave an MIC (strain CDC-0184, replicates 1-3) of 0.169 µg/mL (≈ 0.499 µM), an MIC (strain CDC-0185, CIP, PEN, TET) of 0.27 µg/mL (≈ 0.798 µM) and an MIC (strain CDC-0185, replicates 1-3) of 0.338 µg/mL (≈ 0.999 µM). It also gave an MIC (strain CDC-0186, CIP, PEN, TET) of 0.17 µg/mL (≈ 0.502 µM), an MIC (strain CDC-0186, replicates 1-3) of 0.169 µg/mL (≈ 0.499 µM) and an MIC (strain CDC-0187, CIP, PEN, TET) of 0.34 µg/mL (≈ 1 µM). It also gave an MIC (strain CDC-0187, replicates 1-3) of 0.338 µg/mL (≈ 0.999 µM).
